Here are results for one molecule from US10995101B2, “2-oxo-thiazole derivatives as A2A inhibitors and compounds for use in the treatment of cancers” (iTeos Therapeutics SA, priority 2017, dated 2021).

Values joined by “and” are separate entries in the source; they are usually repeats but may differ in a detail not shown here. Equal values may be shown once. Read-outs that look alike come from different tables or passages of the source. A value given as a limit tells only on which side of the number the result lay.

Series [1] in a line: Concentration in brain and cerebrospinal fluid compared to plasma. In kind it is in vivo, mice. Conditions: for concentration at 0.5 h / Kp at 0.5 h / plasma concentration at 0.5 h: female, Balb-c, mouse, po; for plasma concentration at 0.5 h: Plasma Concentration (ng/mL). Here is the method:
7-9 weeks old female Balb-c mice (obtained from SLAC Laboratory Animal Co. Ltd., Shanghai, China or SIPPR-B&K Laboratory Animal Co. Ltd., Shanghai, China) were dosed orally at a dose of 10 mg/kg, as a 1.00 mg/mL suspension in 10% DMSO+10% solutol+80% water, adjusted to pH 3-4 (homogenous opaque suspension).
Animals were fasted at least 12 hours prior to the administration. All animals had access to Certified Rodent Diet (Catalog # M01-F, SLAC Laboratory Animal Cl. Ltd., Shanghai, China) ad libitum 4 hours post dosing. Serial bleeding (about 30 μL blood per time point) were performed from submadibular or saphenous vein. Those samples were transferred into prechilled microcentrifuge tubes containing 2 μL of K2EDTA (0.5M) as anti-coagulant and placed on wet ice for further treatment. Immediately after blood collection, the whole brain was harvested immediately at the designed time points. At selected timepoints post-dose, CSF was collected from cisterna magna.
Blood samples were processed for plasma by centrifugation at approximately 4° C., 3000 g 15 min within half an hour of collection. Plasma samples were stored in polypropylene tubes, quick frozen over dry ice and kept at −70° C. until LC/MS/MS analysis. Brain samples were weighed, rinsed in cold distilled water to remove blood, and homogenized using pre-cooled water at the ratio of 1:4 (1 g brain used 4 mL water). And the brain homogenization was kept at −70° C. until LC/MSMS analysis. CSF was quick frozen over dry ice and kept at −70° C. until LC/MS/MS analysis.

Series [2] addresses T1, A2A receptor (Homo sapiens, UniProt P29274). In words: Modulation of pCREB in human immune cells. Type of series: cell-based. On the set-up: endogenous in cells; host or cells: human CD3+ T cells isolated from venous blood of healthy volunteers. Conditions: read-out: IC50 of pCREB inhibition. Here is the method: The A2A receptor is known to mediate CREB phosphorylation.
Venous blood from healthy volunteers, all of whom signed an informed consent approved by the Ethics Committee (FOR-UIC-BV-050-01-01 ICF_HBS_HD Version 5.0), was obtained via ImmuneHealth (Centre Hospitalier Universitaire Tivoli, La Louviere, Belgium). […] All dilutions were prepared in RPMI1640 medium (with UltraGlutamine; Lonza, Verviers, Belgium), and cells were incubated with compounds in a 37° C. humidified tissue culture incubator with 5% CO2. After stimulation, cells were fixed and permeabilized, followed by intracellular staining using mouse anti-human pCREB antibodies (Clone J151-21; BD Biosciences) at room temperature. Data were acquired using an LSRFortessa flow cytometer (BD Biosciences) and analyzed using FlowJo software (FlowJo, LLC, Ashland, Oreg.).

A further series can be described thus: in vitro. Conditions: human, Caco-2, pH 7.4.
The target of the next series is A2AR (Mus musculus, UniProt Q60613). The conditions noted are these: 10 mg/kg PO 30 min prior to CGS21680; score observed in at least 60-100% of mice for 30 minutes.
Chain of A2AR (Q60613 whole entry): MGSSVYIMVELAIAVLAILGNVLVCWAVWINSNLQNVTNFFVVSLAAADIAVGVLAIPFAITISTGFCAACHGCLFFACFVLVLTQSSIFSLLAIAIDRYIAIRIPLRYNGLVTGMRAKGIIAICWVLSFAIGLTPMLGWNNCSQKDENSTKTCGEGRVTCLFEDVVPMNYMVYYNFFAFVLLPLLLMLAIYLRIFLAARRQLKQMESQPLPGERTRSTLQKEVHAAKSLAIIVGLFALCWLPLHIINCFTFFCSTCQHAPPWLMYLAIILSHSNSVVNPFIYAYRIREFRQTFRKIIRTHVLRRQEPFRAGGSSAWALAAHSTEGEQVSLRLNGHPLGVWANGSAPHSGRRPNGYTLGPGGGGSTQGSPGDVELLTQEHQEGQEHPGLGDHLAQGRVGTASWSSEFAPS
Series [3] concerns the target T1, A2A receptor. In words: Human IL-2 T cell assay (restoration of IL-2 production in CGS-21680-treated CD3+ T cells). Type of series: cell-based. On the set-up: endogenous in cells; host or cells: human CD3+ T cells isolated from venous blood of healthy volunteers. The conditions noted are these: restoration of IL-2 production, human CD3+ T cells, anti-CD3/CD28 beads, 72 hours. The source says:
When T-cells are activated, they produce pro-inflammatory cytokines. When the A2A receptor is activated in T cells, the amount of cytokines produced in response to stimulation of T-cells is reduced.
Venous blood from healthy volunteers, all of whom signed an informed consent approved by the Ethics Committee (FOR-UIC-BV-050-01-01 ICF_HBS_HD Version 5.0), was obtained via ImmuneHealth (Centre Hospitalier Universitaire Tivoli, La Louviere, Belgium). Mononuclear cells were collected by density gradient centrifugation, using SepMate-50 tubes (StemCell Technologies, Grenoble, France) and Lymphoprep (Axis-shield, Oslo, Norway) according to the manufacturer's instructions. CD3+ T cells were isolated by immunomagnetic negative selection, using the EasySep Human T Cell Isolation Kit (StemCell Technologies) as per manufacturer's instructions. CD3+ T cells were stored in heat inactivated foetal bovine serum (hiFBS; Gibco, ThermoFisher Scientific, Merelbeke, Belgium) containing 10% DMSO in liquid nitrogen.
Human purified CD3+ T cells were thawed and washed twice with RPMI1640 medium (with UltraGlutamine; Lonza, Verviers, Belgium) supplemented with 1× non-essential amino acids (Lonza), 2% Pen/Strep (Lonza) and 1 mM Sodium Pyruvate (Gibco) (complete media), containing 10% hiFBS. The cells were suspended either in complete media containing 20% hiFBS or in 100% heat inactivated human serum (hiHS; Sigma-Aldrich, Diegem, Belgium). Cells were activated by adding anti-CD3 and anti-CD28 coated microbeads (Dynabeads human T-activator CD3/CD28; Life Technologies, Paisley, UK), suspended either in complete media containing 20% hiFBS or in 100% hiHS. […] Serial dilutions of the compounds of the present invention were prepared and added to the wells. The cells were placed in a 37° C. humidified tissue culture incubator with 5% CO2 for 72 hours. After 72 hours, supernatants were sampled and IL-2 was quantified using the IL-2 (human) AlphaLISA Biotin-Free Detection Kit (AL333F; Perkin-Elmer, Zaventem, Belgium), according to the manufacturer's instructions.

Setting [4] is: individual mice, PO 10 mg/kg, 0.500 h, 10 mg/kg.

T1 sequence (P29274 whole entry): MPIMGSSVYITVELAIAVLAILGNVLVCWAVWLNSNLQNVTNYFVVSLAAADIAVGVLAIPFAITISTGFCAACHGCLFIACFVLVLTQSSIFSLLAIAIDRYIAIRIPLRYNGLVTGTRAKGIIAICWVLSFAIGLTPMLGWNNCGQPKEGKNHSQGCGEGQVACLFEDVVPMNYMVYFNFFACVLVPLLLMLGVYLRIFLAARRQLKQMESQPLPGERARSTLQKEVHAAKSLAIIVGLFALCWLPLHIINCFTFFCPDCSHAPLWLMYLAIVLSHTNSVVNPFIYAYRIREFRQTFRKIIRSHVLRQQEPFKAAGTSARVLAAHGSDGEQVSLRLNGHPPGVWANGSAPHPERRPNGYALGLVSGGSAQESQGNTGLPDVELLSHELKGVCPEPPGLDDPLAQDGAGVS

By IC50 is commonly meant the concentration that gives 50% inhibition. The efflux ratio is the permeability from basolateral to apical divided by that in the opposite direction, in the common usage. Consider `NC(=O)COc1cc(N2CCN(CCn3c(=O)sc4c3nc(N)n3nc(-c5ccco5)nc43)CC2)c(F)cc1F` [Compound 4, 2-(5-(4-(2-(5-amino-8-(furan-2-yl)-2-oxothiazolo[5,4-e][1,2,4]triazolo [1,5-c]pyrimidin-3(2H)-yl)ethyl)piperazin-1-yl)-2,4-difluorophenoxy)acetamide], for which the concentration at 0.5 h in series [1] (CSF, 10 mg/kg, individual mice, PO 10 mg/kg, 0.500 h, read-out: CSF Concentration) is less than 3 ng/mL; in series [1] (CSF, 10 mg/kg, mean of 3 mice, PO 10 mg/kg, 0.500 h, read-out: CSF Concentration (ng/mL), Mean) it was less than 3 ng/mL; in series [1] (brain, 10 mg/kg, individual mice, PO 10 mg/kg, 0.500 h, read-out: Brain Concentration), less than 15 ng/g; in series [1] (brain, 10 mg/kg, mean of 3 mice, PO 10 mg/kg, 0.500 h, read-out: Brain Concentration (ng/g), Mean) it was less than 16 ng/g. The Kp at 0.5 h in series [1] (CSF, 10 mg/kg, individual mice, PO 10 mg/kg, 0.500 h, read-out: CSF/Plasma Ratio) was less than 0.005; in series [1] (CSF, 10 mg/kg, mean of 3 mice, PO 10 mg/kg, 0.500 h, read-out: CSF/Plasma Ratio, Mean), less than 0.004; in series [1] (brain, 10 mg/kg, individual mice, PO 10 mg/kg, 0.500 h, read-out: Brain/Plasma Ratio) it was less than 0.026; in series [1] (brain, 10 mg/kg, mean of 3 mice, PO 10 mg/kg, 0.500 h, read-out: Brain/Plasma Ratio, Mean), less than 0.021. For the same molecule, the plasma concentration at 0.5 h was found to be 779 ng/mL in series [1] (10 mg/kg, Mean, mean of 3 mice, PO 10 mg/kg, 0.500 h) and 576 ng/mL in series [1] (10 mg/kg, individual mice, PO 10 mg/kg, 0.500 h, female Balb-c mice). Further, the “CSF Concentration” value in series [1] (individual mice, PO 10 mg/kg, 0.500 h) is less than 3 ng/mL. In series [1] (individual mice, PO 10 mg/kg, 0.500 h, female Balb-c mice, 10 mg/kg), the “Plasma Concentration” value was 995 ng/mL and 765 ng/mL. For the same molecule, the “Brain Concentration” value in series [1] (setting [4]) was 16.9 ng/g and <15 ng/g. The “Brain/Plasma Ratio” value in series [1] (setting [4]) was 0.0169 and <0.020. The “CSF/Plasma Ratio” value in series [1] (setting [4]) is <0.003 and <0.004. Also, the “quantity found in brain or CSF” value in series [1] (mice, oral 10 mg/kg) was “no measurable quantity”. Moreover, the IC50 on A2A receptor [2] was 20 nM; at A2A receptor [3] (IC50 (nM) (500 nM CGS-21680 as agonist, 10% FBS), 500 nM CGS-21680, 10% FBS) it was 0.3 nM; on A2A receptor [3] (IC50 (nM) (5000 nM CGS-21680 as agonist, 50% HSA), 5000 nM CGS-21680, 50% HSA) it was 63 nM. Further, in “in vitro”, the efflux ratio at 120 min, 2 μM is 123. Also, at A2AR, the “Score (locomotion / immobility)” value is recorded as “+++”.
